# Reference: PubChem BioAssay AID1444 (PCMD, 2008)
# Target: E3 ubiquitin-protein ligase Mdm2 (Homo sapiens) (UniProt Q00987)
# Test: wild-type MDM2 reporter signal enhancers, dose response, cell-based, luciferase luminescence (AID 1444)
# Settings: MDM2 wild-type luciferase reporter cells, 2 h
# Chain of E3 ubiquitin-protein ligase Mdm2 (Homo sapiens) (Q00987 whole entry, looked up): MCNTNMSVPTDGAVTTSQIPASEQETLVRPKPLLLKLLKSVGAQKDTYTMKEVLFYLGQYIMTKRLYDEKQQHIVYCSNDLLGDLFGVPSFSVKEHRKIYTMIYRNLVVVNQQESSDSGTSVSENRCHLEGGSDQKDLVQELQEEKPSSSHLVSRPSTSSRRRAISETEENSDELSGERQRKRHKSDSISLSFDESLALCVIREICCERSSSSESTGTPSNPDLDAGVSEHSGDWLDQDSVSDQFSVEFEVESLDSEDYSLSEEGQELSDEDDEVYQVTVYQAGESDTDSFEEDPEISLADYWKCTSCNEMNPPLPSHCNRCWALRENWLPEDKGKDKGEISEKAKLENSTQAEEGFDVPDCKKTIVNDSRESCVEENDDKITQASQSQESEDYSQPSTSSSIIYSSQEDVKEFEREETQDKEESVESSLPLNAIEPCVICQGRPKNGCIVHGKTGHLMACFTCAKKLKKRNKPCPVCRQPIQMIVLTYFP
structure (smiles),measurement,value
CC1=NN(c2cccc(C(=O)O)c2)C(=O)/C1=C\C=C/c1ccccc1,EC50,720 nM
